Test results taken from patent publication US20110256241A1, “METHODS AND COMPOSITIONS FOR THE TREATMENT OF CANCER” (TRASLATIONAL CANCER DRUGS PHARMA, S.L., priority 2008, published 2011).

Experiments:
H460 cells = assay: Cell proliferation assay (MTT); assay type: cell-based, human
Procedure: (§1) All cell lines used in this study were maintained under standard conditions of temperature (37° C.), humidity (95%), and carbon dioxide (5%). Human primary bronchial epithelial cells, NHBE (BEC) (Cambrex, CC-2541) were grown in BEGM (Bronchial Epithelial cell growth media) BulletKit (Cambrex, CC-3170). Human primary mammary epithelial cells, HMEC (Clonetics, CC-2551) were grown in MEBM medium supplemented with a bullet kit (Clonetics, CC-3150). Epithelial non-small lung cancer cells H460 and H1299, and small cell lung cancer cell lines H510 and H82 were maintained in RPMI supplemented with 10% Fetal Bovine Serum (FBS) (Life Technologies, Grand Island, N.Y.).
Cells were seeded on 96-well plates (BD, Falcon, Bioscience, San Jose, Calif., USA) at a density of 6000 cells/well, and incubated for 24 h under standard conditions. Then, cells were treated with different concentrations of the ChoK inhibitors (quadruplicates of each concentration) and maintained for 72 hours. […] Absorbance is read at 595 nm in a VersaMax Microplate Reader (Molecular Devices, Sunnyvale, Calif., USA). For sensitization with acid ceramidase inhibitor, cells were pre-treated […] with the correspondent IC50 for NOE before treatment with ChoK inhibitors. NOE (N-Oleoyl ethanolamine) was obtained from Calbiochem (La Jolla, Calif., USA).
Thus, disruption in the levels of acid ceramidase may allow ChoK inhibitors to have a better effect in these cells. To verify this hypothesis, we used the previously characterized acid ceramidase inhibitor, N-Oleoylethanolamine (NOE) (Grijalvo S., Chem Phys Lipids. 2006; 144:69-84), to investigate if the inhibition of acid ceramidase sensitizes tumour cell lines to ChoK inhibitors. To that end, H460 cells were pre-treated with NOE for three hours to inhibit acid ceramidase.
H460 cells were pre-treated with these compounds for three hours to inhibit ceramidases. […] Furthermore, the combined use of ChoK inhibitors and acid ceramidase inhibitors provides a further stronger anticancer activity.

H1299 cells = assay: Cell proliferation assay (MTT); assay type: cell-based, human
Procedure: as §1
(§2) Cells were seeded on 96-well plates (BD, Falcon, Bioscience, San Jose, Calif., USA) at a density of 6000 cells/well, and incubated for 24 h under standard conditions. […] Absorbance is read at 595 nm in a VersaMax Microplate Reader (Molecular Devices, Sunnyvale, Calif., USA). For sensitization with acid ceramidase inhibitor, cells were pre-treated 4 hours with the correspondent IC50 for NOE before treatment with ChoK inhibitors. NOE (N-Oleoyl ethanolamine) was obtained from Calbiochem (La Jolla, Calif., USA).

H510 cells = assay: Cell proliferation assay (MTT); assay type: cell-based, human
Procedure: as §1, §2

H82 cells = assay: Cell proliferation assay (MTT); assay type: cell-based, human
Procedure: as §1, §2

H460 xenografts = assay: NSCLC xenografts, in vivo tumor growth inhibition; details: FIG. 7A, single agents
Procedure: Indicated cells were resuspended in DMEM just before inoculation (10^6 cells/0.1 ml), and injected subcutaneously in nu/nu immunosuppressed mice. Mice were kept under standard laboratory conditions according to the guidelines of the Spanish Government. When tumours reached a mean volume of 0.1 cm^3, mice were randomized to control and treated groups. Treatments with the antitumoral agents (and vehicle for control mice) were performed i.p. with following the indicated schedules. Tumors were monitored three times a week by measuring the major (D) and minor (d) diameters, and tumour volume was calculated by V=(D*d^2)/2. Statistical analysis of significant changes in tumour growth was calculated using SPSS software v. 13.0.

[1] = system: DR5 (TNFRSF10B or TRAIL-R2) in DLD-1 cell line; assay: DR5 levels by quantitative PCR; assay type: cell-based, human
Procedure: (§3) 1 μg of RNA was used to generate cDNA using High-Capacity cDNA Archive Kit (Applied Biosystems), and quantitative real-time PCR was carried out in triplicate using the ABI PRISM 7700 Sequence Detector (Applied Biosystems). GAPDH and 18S ribosomal mRNA were amplified as internal controls. Probes used for amplification were from Applied Biosystems as Taqman Gene Expression Assays (ASAH1: HS00602774—M1 Taqman Probe, ASAH2: HS00184096_M1 Taqman Probe and ASAH3: HS00370322_M1 Taqman Probe, DUT: HS00798995_S1 Taqman Probe, TYMS: HS00426591_M1 Taqman Probe, UPP1: HS00427695—M1 Taqman Probe, RRM2: HS00357247_G1 Taqman Probe). The 2-^ΔΔCt method was used (Livak K J., Methods. 2001; 25:402-8) to calculate the relative expression of each gene.
(§4) TRAIL is a member of the tumour necrosis factor (TNF) superfamily and can induce apoptosis by the extrinsic pathway associated via stimulation of death receptors DR4 (TNFRSF10A or TRAIL-R1) and DR5 (TNFRSF10B or TRAIL-R2). In order to determine the mechanism of the effectivity of the combined therapy of TRAIL and ChoK inhibitors, DR5 and DR4 levels were analysed by quantitative PCR in DLD-1 and SW620 cell lines after treatments with MN58b, TRAIL or their simultaneous combination.

[2] = system: DR5 (TNFRSF10B or TRAIL-R2) in SW620 cell line; assay: DR5 levels by quantitative PCR; assay type: cell-based, human
Procedure: as §3, §4

With `CN(C)c1cc[n+](Cc2ccc(CCCCc3ccc(C[n+]4ccc(N(C)C)cc4)cc3)cc2)cc1` [MN58b, 1,4-(4-4′-Bis-((4-(dimethylamine)pyridinium-1-yl)methyl)diphenyl)butane dibromide] the “figure in parentheses after IC50 48 h (not defined; fold vs primary cells)” value (H460 cells) was 6, the “figure in parentheses after IC50 72 h (not defined; fold vs primary cells)” value (H460 cells) was 8 and the “figure in parentheses after IC50 144 h (not defined; fold vs primary cells)” value (H460 cells) was 3. The “figure in parentheses after IC50 48 h (not defined; fold vs primary cells)” value (H1299 cells) was 4, the “figure in parentheses after IC50 72 h (not defined; fold vs primary cells)” value (H1299 cells) was 8 and the “figure in parentheses after IC50 144 h (not defined; fold vs primary cells)” value (H1299 cells) was 4. For the same compound, the “figure in parentheses after IC50 48 h (not defined; fold vs primary cells)” value (H510 cells) was 41, the “figure in parentheses after IC50 72 h (not defined; fold vs primary cells)” value (H510 cells) was 53 and the “figure in parentheses after IC50 144 h (not defined; fold vs primary cells)” value (H510 cells) was 27. For the same compound, the “figure in parentheses after IC50 48 h (not defined; fold vs primary cells)” value (H82 cells) was 24, the “figure in parentheses after IC50 72 h (not defined; fold vs primary cells)” value (H82 cells) was 27 and the “figure in parentheses after IC50 144 h (not defined; fold vs primary cells)” value (H82 cells) was 12. The “Statistical significance (p), tumour growth” value (H460 xenografts) was 0.09, the “increase in DR5 levels” value [1] was 1.6 fold and the “increase in DR5 levels” value [2] was 2 fold.
